Source: PubChem BioAssay AID449762 (Southern Research Specialized Biocontainment Screening …, 2010)
Inconclusive results are not listed.

Test system: M. tuberculosis H37Rv growth inhibition, 7H9 media
Assay: M. tuberculosis growth inhibition, HTS (AID 449762);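 also: bacterial growth assessed after seven days of incubation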
Details: for IC90: measured here: IC90 growth inhibition

SMILES	IC50 [µM]	IC90 [µM]
CCCCCCCCCCCCCCCC[N+](C)(C)CC	30.3	43
CCCCn1cnc2c(c(-c3ccccc3)c(-c3ccccc3)n2Cc2ccco2)c1=N	75.3	97.4
O=C1C(SCCO)=C(SCCO)C(=O)c2ccccc21	6.06	6.83
c1ccc(C2[C@H]3CN(CC4CCCCC4)[C@H](c4ccccc4)C34CC2(c2cccnc2)C4)cc1 (stereo partly specified)	31.4	41.5
CCCc1cc(C(N)=S)ccn1	6.61	> 100
Cn1c(-c2c(N)n(CCc3ccccc3)c3nc4ccccc4nc23)nc2ccccc21	7.64	> 100
Cc1ccc(NC(=O)COC(=O)CCc2c[nH]c3ccccc23)cc1[N+](=O)[O-]	0.68	4.74
FC(F)(F)c1ccc(Nc2nnnc3ccccc23)cc1	90.2	99.6
CCSc1ncc(/C=N/Nc2ccccc2)n1C	89.3	> 100
O=[N+]([O-])c1ccc(Sc2cc[n+]([O-])c3ccccc23)c([N+](=O)[O-])c1	16.1	24.3
CCCCOCCCn1c(-c2ccco2)nc2nc3ccccc3nc21	94.9	> 100
Cc1sc2ncnc(N3CCC(C(=O)NCC(=O)Nc4ccc(F)c(F)c4)CC3)c2c1C	37.9	50
COC(=O)c1c(NC(=O)CC2SC(N)=NC2=O)sc2c1CCC(C(C)(C)C)C2 (stereo unspecified)	34.4	51.3
Cn1cc(C(=O)c2ccc(Cl)cc2)cc1-c1nc2ccccc2n1C	13.4	27.1
C/C(=N\NC(=O)c1cc2c(s1)CCC(C)C2)c1ccncc1 (stereo unspecified)	–	> 100
CC(C)CNC(=S)NC(=O)c1csc([N+](=O)[O-])c1	6.74	15.1
COc1cc(OC)cc(-c2cc3nc(C)c(CCC(=O)NC(C)CCc4ccco4)c(C)n3n2)c1 (stereo unspecified)	44.3	> 100
CC(C)Oc1ccc(C(=O)N/N=C/c2ccc(-c3ccc(S(=O)(=O)Nc4ncccn4)cc3)o2)cc1	19.2	37.4
CCOc1cc(/C=C2\COc3ccccc3C2=O)cc(Br)c1OCC(=O)N(C)C	2.75	6.63
CC(=O)c1ccc(-n2cc(-c3ccc(C(C)(C)C)cc3)[n+]3c2SCCC3)cc1	4.34	29.5
CSc1nn(-c2ccc(C(=O)OCC(=O)NC(=O)NC(C)C)cc2)c(=S)s1	23.1	25.9
Cc1cc(-n2c(C)cc(C(=O)COc3ccc4ccc(=O)oc4c3)c2C)no1	68.6	> 100
CC(C)Cn1c(N2CCN(C(=O)/C=C/c3ccccc3)CC2)nc2ccccc21	23.7	27.2

SMILES	IC50 [µM]	IC90 [µM]
CCCCCCCCn1cnc2c(N)c(C)c(C)cc21	37.4	60
COc1ccc(-c2nnn(CC(=O)OC3CCCCC3)n2)cc1OC	5.71	62.7
CCc1ccc(NC2=NCC(c3ccccc3)S2)cc1 (stereo unspecified)	3.03	> 100
O=C(Nc1ccccc1)C1=C[C@@H](C2CCCCC2)C[C@@H](OCc2ccc(CO)cc2)O1	45	50.2
CC(C)Oc1ccc(-c2nc(NCC3CCCO3)c3ccccc3n2)cc1 (stereo unspecified)	68	91.3
O=C(OCCN1C(=O)c2ccccc2C1=O)c1cc2ccccc2o1	12.2	> 25
COc1cc(/C=N/NC(=O)COc2ccc(C)cc2)ccc1OC(=O)c1cccs1	18.1	30.2
c1ccc(Cn2nnc3c(N4CCc5ccccc5C4)ncnc32)cc1	19.7	72.8
Cc1onc(-c2c(F)cccc2Cl)c1C(=O)O/N=C(\N)c1ccc([N+](=O)[O-])o1	5.3	11
CCOC(=O)CCCNC(=O)COC(=O)c1cc(Br)c(Br)s1	9.86	> 100
COC(=O)CSc1ncnc2c1cnn2-c1ccc(C)cc1C	3.82	7.95
O=S(Cc1ccc(Br)cc1)Cc1nnc(SCc2ccc(Cl)cc2)n1-c1ccccc1 (stereo unspecified)	91.1	> 100
CCn1nc(NC(=O)c2ccncc2)c2cc3cc(C)ccc3nc21	4.47	47.3
NCCCn1c(C(=O)c2ccc(Cl)cc2)c2ccc([N+](=O)[O-])cc2[n+]1[O-]	23.9	32.3
CCCCNC(=S)N(C)/N=C/c1ccc2c(c1)OCO2	12.2	20.4
COc1ccc(C(C(O)C(=O)c2c[nH]c3ccccc23)N2CCN(c3ccc(OC)cc3)CC2)cc1 (stereo unspecified)	100	> 100
CCN1/C(=C/c2ccc3cc(C)ccc3[n+]2CC)Sc2ccccc21	1.41	1.61
c1cc2c3c(cccc3c1)NC1(CCC3(CC1)Nc1cccc4cccc(c14)N3)N2	65.5	> 100
CN(C)c1ccc(CNc2nc(-c3ccccc3)nn2S(C)(=O)=O)cc1	12	13.8
Cc1ccc(-c2noc(=O)n2CC(=O)c2ccc(Cl)cc2)cc1	44.3	> 100
CCCCCC1CC(CC(=O)NC(=S)Nc2ccc([N+](=O)[O-])cc2)C(=O)O1 (stereo unspecified)	92.9	> 100
Cn1c2ccccc2c2cc(C(=O)NNC(=O)CCl)sc21	1.72	3.91
CC1(C)CC(=O)C2=C(C1)OC(N)=C([N+](=O)[O-])C2c1ccc(C#N)s1 (stereo unspecified)	62.2	> 100

SMILES	IC50 [µM]	IC90 [µM]
O=C(Cc1ccccc1)N/N=C/c1ccc2cccc(O)c2n1	7.67	12.3
O=c1oc2ccccc2c2c1nc(C(F)(F)F)n2-c1ccccc1	4.39	31.1
COc1ccc(N2C(=O)C(Cl)=C(Nc3ccccc3O)C2=O)cc1	14.2	25.7
CCOC(=O)CSc1nnc(-c2c[nH]c3ccccc23)o1	0.59	> 100
O=c1c2c(nc3nc(NCc4ccc(Cl)cc4)[nH]n13)CCC2	6.28	7.32
Cn1c(CNc2ccccc2O)nc2ccccc21	3.01	3.52
Cc1ccc(C)c(C2C(=O)c3ccccc3C2=O)c1	3.94	16.3
Cn1nnc(NC(=S)NC(=O)c2ccc(-c3ccc(Br)cc3)o2)n1	–	> 100
C=CCOc1ccc2c(c1)C(=NO)c1cc(OCC=C)ccc1-2	5.82	9.27
CCOC(=O)c1cnc(-n2nc(C)cc2C)nc1NNc1cc(C)nc(-c2ccccc2)n1	23.7	92
O=C(CCCCCNc1nc(=S)[nH]c2ccccc12)N1CCN(c2ccccn2)CC1	40.9	> 100
c1ccc2c(c1)CCN(c1nc3cc4c(cc3s1)OCCO4)C2	7.45	16.9
Clc1cccc(-c2cc3nc4c(c(NCc5ccco5)n3n2)CCCC4)c1	11	17.4
COc1ccc(-c2cn(Cc3ccc(C(=O)NCc4ccc(C)cc4)cc3)c(C(C)N)n2)cc1 (stereo unspecified)	46.5	53.2
CCc1nc(N2CCN(C(C)=O)CC2)c2c3c(sc2n1)CC(C(C)(C)C)CC3 (stereo unspecified)	12.8	14.1
Nc1cc(Cl)c2nonc2c1[N+](=O)[O-]	5.83	6.64
CCOC(=O)COc1ccc(S(=O)(=O)NCCC2=CCCCC2)cc1	13.6	27.6
Cc1ccc(C(=O)c2oc3ccc(Cl)cc3c2NC(=O)CN2CCN(C)CC2)cc1	14.6	17.8
O=C(CCc1nnc(CCCc2ccccc2)o1)NCCCC1CCCC1	10.5	23.1
c1ccc(-c2nc3c(ccc4ccccc43)[nH]2)nc1	6.75	20.3
COc1ccc(Cc2nc3ccc(C(=O)NCCCSC)cc3o2)cc1OC	41.1	> 100
CC(C)COCc1ccc(O)c2ncccc12	1.64	2.35
CC(C)OC(=O)/C(C#N)=C/c1ccc(-c2ccc(SC(F)F)cc2)o1	5.28	16.8

SMILES	IC50 [µM]	IC90 [µM]
Cc1nn(C(C)(C)C)c(NC(=O)c2ccc(Cl)cc2Cl)c1Br	2.97	> 100
c1ccc2c(c1)ncn2CCCCOc1ccc2c(c1)CCC2	22.8	25.7
O=C(OCC(=O)N1CCC(c2ccccc2)=N1)c1ccc(Cl)s1	21.5	> 25
CCOC(=O)CSc1nc(N)c(C(=O)Nc2ccc(N(C)C)cc2)s1	1.05	5.82
C/C(=N\Nc1ccc(Cl)c(Cl)c1)c1ccc(-n2ccnc2)cc1	65.8	86.4
O=C(C/C=N\OCc1ccc([N+](=O)[O-])cc1)Nc1ccc(F)cc1F	20.3	98.4
CCC1C(c2ccccc2)N(C)C(c2ccccc2)CC1(O)c1ccccc1 (stereo unspecified)	23.2	25.5
Cc1nn(Cc2ccccc2)c(C)c1C(=O)OCC(=O)c1cc(C)n(CC(F)(F)F)c1C	11.8	35.4
CN(C)CCCN(C(=O)c1ccc([N+](=O)[O-])s1)c1nc2cc3c(cc2s1)OCCO3	30.7	45.5
C/C(=N\NC(=O)c1nnn(-c2nonc2N)c1CN(C)c1ccccc1)c1ccccn1	8.5	15.7
Cc1c2c(nc3ccccc13)CCC(C)C2 (stereo unspecified)	33.8	61.8
O=C(OCC(=O)N1CCN(C(=O)c2ccco2)CC1)c1cc(-c2cccc(Br)c2)nc2ccccc12	95.2	> 100
CSCCC1NC(=O)N(CC(=O)N2N=C(c3ccc(Cl)cc3)CC2c2ccco2)C1=O (stereo unspecified)	10.5	16
Cc1ccc(C2=NCCn3c2c2ccccc2[n+]3[O-])cc1	22.6	38.9
Cc1ccc(CNc2ccc3c(c2)ncn3C(C)(C)C)cc1	7.41	14.8
O=C(COC(=O)C1CC2CCCC(C1)C2=O)NNC(=O)c1ccccc1F (stereo unspecified)	9.47	> 100
Oc1ccccc1/C=N/NC(=S)NC1CC2CC1C1C=CCC21 (stereo unspecified)	11.1	12.3
COc1cccc(-c2cc3nc4c(c(NCC(C)(C)CN(C)C)n3n2)CCCC4)c1	22	28.2
Cn1nc(-c2ccccc2F)c2cc(C(=O)Nc3ccc4c(c3)OCCO4)sc21	17.7	35.5
C/C(=N\NC(=O)COc1ccc(C)cc1Br)c1cc([N+](=O)[O-])cs1	4.07	34.1
